This is an account of results in paper PMC7442255, “Characterization of the Corynebacterium glutamicum dehydroshikimate dehydratase QsuB and its potential for microbial production of protocatechuic acid” (PLoS ONE, 2020).

One data set concerns the target N-QsuB (Corynebacterium glutamicum, UniProt Q8NT86). In words: DSD activity assay of purified N-QsuB (N-terminal domain of QsuB). The data set is classed as biochemical.
For the next data set, the target named is QsuB (Corynebacterium glutamicum, UniProt Q8NT86). In words: DSD activity assay of purified QsuB (3,4-DHBA formation at 290 nm). The data set is classed as biochemical.
Chain of QsuB (Q8NT86 entry or part of it): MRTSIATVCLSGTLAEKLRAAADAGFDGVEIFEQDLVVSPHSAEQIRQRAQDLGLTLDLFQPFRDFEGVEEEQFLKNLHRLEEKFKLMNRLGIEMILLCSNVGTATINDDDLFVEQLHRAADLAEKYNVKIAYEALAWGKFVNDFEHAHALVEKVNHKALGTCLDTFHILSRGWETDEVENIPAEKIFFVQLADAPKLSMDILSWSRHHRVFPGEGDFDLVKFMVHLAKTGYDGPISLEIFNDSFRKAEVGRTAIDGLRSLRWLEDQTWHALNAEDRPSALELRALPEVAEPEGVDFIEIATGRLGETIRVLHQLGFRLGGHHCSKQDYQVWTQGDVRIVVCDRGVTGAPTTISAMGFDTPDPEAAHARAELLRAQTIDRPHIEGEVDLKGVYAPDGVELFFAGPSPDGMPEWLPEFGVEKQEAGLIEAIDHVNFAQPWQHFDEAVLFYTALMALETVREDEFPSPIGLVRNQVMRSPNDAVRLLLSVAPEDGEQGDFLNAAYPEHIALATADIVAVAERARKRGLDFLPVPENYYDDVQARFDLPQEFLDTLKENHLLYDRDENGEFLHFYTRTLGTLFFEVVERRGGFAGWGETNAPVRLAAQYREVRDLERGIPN
The subject of a further data set is C. glutamicum. To be noted: cited from earlier work.
In the next data set the test system is E. coli. To be noted: cited from earlier work.
In the next data set the test system is QsuB C-terminal domain. Kind of data set: Test of dioxygenase activity of the C-terminal domain towards 3,4-DHBA (UV spectrum). The data set is classed as biochemical, Corynebacterium glutamicum. To be noted: pH 7.5, incubation with QsuB up to 60 min. On the procedure:
An inhibition type and inhibition constants of the enzyme reaction were determined by a graphical method. The experimental data were plotted as (Vmax–v)/v versus the inhibitor concentration (0 ‒ 0.4 mM 3,4-DHBA) at 0.5/ 1/ 1.5 mM concentrations of DHS, where Vmax and v represented the maximal velocity and the velocity in the absence and presence of inhibitor with given concentrations of the substrate, respectively. The dioxygenase activity of the C-terminal domain was tested with the crude extracts in the reaction mixture of 0.1 M Tris/HCl buffer (pH 7.5), 10 mM MgCl2, 0.1 mM DHBA, and 30 nM of overall protein.
Thus, a possible activity of the C-terminal domain leading to conversion of 3,4-DHBA into another product was not detected under our experimental conditions.

The next data set concerns QuiC1. Details: method as in PMID 27706847. To be noted: cited from earlier work.
The next data set has as its system AsbF B. t. 97-27. Details: method as in PMID 18975921. Particulars: pH 8.6, 37°C ref [12], cited from earlier work.
Data set [1] concerns the target QsuB, dehydroshikimate dehydratase (DSD) from Corynebacterium glutamicum (Corynebacterium glutamicum). In words: SEC; Superose 6 Increase 10/300 GL; 50 mM Tris-HCl (pH 7.5), 500 mM NaCl, 5% v/v glycerol; 0.4 ml/min; A280; mass from a calibration curve of standard proteins; self-association of QsuB. Background: In gel filtration, larger molecules generally elute earlier.

In data set [2] the target is N-QsuB, N-terminal domain of QsuB (Corynebacterium glutamicum). Kind of data set: SEC; Superose 6 Increase 10/300 GL; 50 mM sodium phosphate (pH 7.0), 150 mM NaCl; 0.5 ml/min; A280; mass from a calibration curve of standard proteins; self-association of N-QsuB.
Substrate in data set [3]: O=C(O)C1=CC(=O)C(O)C(O)C1
Kind of data set: DSD activity assay of purified N-QsuB (N-terminal domain of QsuB). Format: biochemical, Corynebacterium glutamicum. To be noted: other: N-QsuB, pH 7.5, 20°C.

Where [4] appears, read: N-QsuB, 1 mM DHS, 10 mM metal salt, normalized against cobalt.
[5] abbreviates: QsuB, 1 mM DHS, 10 mM metal salt, normalized against cobalt.

Where “and” joins values, the source holds several entries; their conditions need not be identical. Identical values can stand only once. Like-named read-outs stand apart in the source and are kept apart here. A value given as a limit tells only on which side of the number the result lay.

Regarding `O=C(O)CN(CCN(CC(=O)O)CC(=O)O)CC(=O)O` [EDTA], the “effect on DSD activity without added metal ions” value at N-QsuB and on QsuB was “inhibited” in each case.

In the case of `[Cl-].[Cl-].[Co+2]` [Co, CoCl2], the “Specific activity (relative DSD activity with divalent metal)” value on N-QsuB and at QsuB was 100% each time. The “Co^2+ concentration at which growth is possible” value in the data set with C. glutamicum is given as 2 mM. In addition, the “Co^2+ concentration tolerated” value in the data set with E. coli is given as < 1 mM.

Take `O=C(O)c1ccc(O)c(O)c1` [3,4-DHBA, 3,4-dihydroxybenzoic acid]: the inhibition type result against N-QsuB (N-QsuB, quotient velocity plot) was “noncompetitive inhibition”; on QsuB (QsuB, quotient velocity plot) it was “mix inhibition type”. Further, the Ki (in general, the equilibrium dissociation constant of an inhibitor or competing ligand from its target) is ~0.69 mM on N-QsuB (N-QsuB, quotient velocity plot, 0.5/1/1.5 mM DHS, read-out: Ki (binding to the enzyme)) and ~0.38 mM on QsuB (QsuB, quotient velocity plot, 0.5/1/1.5 mM DHS, read-out: Ki (binding to the enzyme)). In addition, the “conversion of 3,4-DHBA (change of UV spectrum)” value in the data set on QsuB C-terminal domain is “no difference in the UV spectrum was observed”. The “Ki' (binding to the enzyme-substrate complex)” value at QsuB (QsuB, quotient velocity plot, 0.5/1/1.5 mM DHS) is ~ 0.96 mM.

As to `O=C(O)C1=CC(=O)C(O)C(O)C1` (stereo not shown) [DHS, 3-dehydroshikimic acid], the IC50 (usually the concentration that inhibits the measured activity by half) was ~5.5 mM at N-QsuB (N-QsuB, substrate inhibition, calculated from data of Fig 6, read-out: IC50 (decrease of DSD activity by substrate DHS)) and ~4.2 mM at QsuB (QsuB, substrate inhibition, calculated from data of Fig 6, read-out: IC50 (decrease of DSD activity by substrate DHS)). In addition, the Km (commonly the concentration of substrate that gives half-maximal velocity) is 331 ± 51 µM in the data set with QuiC1 (QuiC1, pH 7.5, 25°C ref [15], read-out: Km (DHS)) and 125 ± 14 µM with AsbF B. t. 97-27 (read-out: Km (DHS)). For the same molecule, the kcat (usually the number of substrate molecules converted per active site and unit of time at saturation) was 163.6 ± 8.5 s⁻¹ in the data set with QuiC1 (QuiC1, substrate DHS, pH 7.5, 25°C ref [15]); 3.6 ± 0.2 s⁻¹ with AsbF B. t. 97-27 (substrate DHS); 60.8 ± 0.9 s⁻¹ at QsuB (QsuB, substrate DHS, pH 7.5, 20°C).

Turning to “QsuB, dehydroshikimate dehydratase (DSD) from Corynebacterium glutamicum (enzyme)”, in data set [1], the percent present as monomers is 15%; the percent present as octamers was determined as 60%; the percent present as tetramers turned out to be 25%; the stoichiometry N – broadly, a count of units in the complex or per binding partner – is 8 and 4.

In data set [2], “N-QsuB, N-terminal domain of QsuB (domain or fragment)” yielded a stoichiometry N of 2.

For `[Cl][Mn][Cl]` [Mn, MnCl2], the “Specific activity (relative DSD activity with divalent metal)” value on N-QsuB (setting [4]) is on record as 21%; at QsuB (setting [5]), 17%.

Take `[Cl-].[Cl-].[Mg+2]` [Mg, MgCl2]: the “Specific activity (relative DSD activity with divalent metal)” value on N-QsuB (setting [4]) was 22%; at QsuB (setting [5]) it was 24%.

B1: N-QsuB (Corynebacterium glutamicum ATCC 13032) (protein)
chain: MRTSIATVCLSGTLAEKLRAAADAGFDGVEIFEQDLVVSPHSAEQIRQRAQDLGLTLDLFQPFRDFEGVEEEQFLKNLHRLEEKFKLMNRLGIEMILLCSNVGTATINDDDLFVEQLHRAADLAEKYNVKIAYEALAWGKFVNDFEHAHALVEKVNHKALGTCLDTFHILSRGWETDEVENIPAEKIFFVQLADAPKLSMDILSWSRHHRVFPGEGDFDLVKFMVHLAKTGYDGPISLEIFNDSFRKAEVGRTAIDGLRSLRWLEDQTWHALNAEDRPSALELRALPEVAEPEGVDF
Take B1: in [3], the Km amounted to 473 ± 71 µM; the kcat worked out at 23.4 ± 0.4 s⁻¹; the kcat/Km (in general, the second-order rate constant that governs catalysis at low substrate concentration) came to 49500 ± 5600 M⁻¹ s⁻¹.
